Measured values published in patent US9237996B2, “Glucosyltransferase inhibitor containing epigallocatechin gallate polymer as active ingredient” (priority 2008, dated 2016).

Columns and labels:
[1] = molecular target: T1, glucosyltransferase B (GTFB) (Streptococcus mutans serotype c, UniProt P08987); assay: Glucosyltransferase inhibitory activity, turbidity (550 nm) of water-insoluble glucan, rGTFB; format: biochemical; conditions: 37° C. overnight
T1 construct: made in house; host or cells: Escherichia coli XL-2 harboring plasmid pSK6
T1 sequence (P08987 35-1476): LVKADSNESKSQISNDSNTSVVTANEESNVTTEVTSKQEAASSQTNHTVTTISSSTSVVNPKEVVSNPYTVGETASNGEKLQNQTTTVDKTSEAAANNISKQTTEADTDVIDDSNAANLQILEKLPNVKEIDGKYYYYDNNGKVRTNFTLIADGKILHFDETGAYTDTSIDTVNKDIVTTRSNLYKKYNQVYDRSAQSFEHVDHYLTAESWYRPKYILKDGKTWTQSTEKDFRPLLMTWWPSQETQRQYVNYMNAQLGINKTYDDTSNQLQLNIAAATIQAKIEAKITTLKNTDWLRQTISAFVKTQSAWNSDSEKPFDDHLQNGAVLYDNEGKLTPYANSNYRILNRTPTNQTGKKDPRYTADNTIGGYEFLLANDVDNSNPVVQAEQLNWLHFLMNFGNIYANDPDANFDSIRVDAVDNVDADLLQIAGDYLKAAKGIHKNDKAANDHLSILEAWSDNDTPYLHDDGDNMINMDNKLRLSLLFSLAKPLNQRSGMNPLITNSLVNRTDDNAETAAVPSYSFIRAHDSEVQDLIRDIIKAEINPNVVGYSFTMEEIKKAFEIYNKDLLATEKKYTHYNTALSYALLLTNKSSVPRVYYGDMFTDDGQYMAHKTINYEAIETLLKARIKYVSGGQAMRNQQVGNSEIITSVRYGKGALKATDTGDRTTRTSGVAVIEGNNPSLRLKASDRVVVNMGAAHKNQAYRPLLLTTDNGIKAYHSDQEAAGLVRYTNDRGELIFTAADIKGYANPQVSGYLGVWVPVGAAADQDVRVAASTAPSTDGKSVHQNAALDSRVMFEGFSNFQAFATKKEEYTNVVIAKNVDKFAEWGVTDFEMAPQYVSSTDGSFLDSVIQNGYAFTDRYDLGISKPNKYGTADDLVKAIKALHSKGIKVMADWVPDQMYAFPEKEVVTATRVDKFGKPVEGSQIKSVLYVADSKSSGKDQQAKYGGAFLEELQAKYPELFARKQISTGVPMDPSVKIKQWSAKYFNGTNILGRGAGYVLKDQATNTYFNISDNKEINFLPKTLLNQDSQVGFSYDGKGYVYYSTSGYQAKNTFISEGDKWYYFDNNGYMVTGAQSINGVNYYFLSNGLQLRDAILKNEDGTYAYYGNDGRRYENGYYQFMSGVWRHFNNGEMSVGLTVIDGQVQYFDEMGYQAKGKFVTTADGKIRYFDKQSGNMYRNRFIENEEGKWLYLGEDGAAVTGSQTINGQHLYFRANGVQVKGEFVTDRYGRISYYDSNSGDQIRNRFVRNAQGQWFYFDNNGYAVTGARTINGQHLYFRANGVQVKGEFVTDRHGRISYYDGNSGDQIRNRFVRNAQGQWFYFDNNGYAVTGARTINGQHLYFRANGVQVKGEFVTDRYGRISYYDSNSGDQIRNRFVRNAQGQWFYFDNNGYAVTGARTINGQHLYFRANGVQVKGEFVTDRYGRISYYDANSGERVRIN
Experimental: (§1) The glucosyltransferase inhibitory activity can be measured by using any one of the evaluation methods described in prior-art literatures set forth in Background Art. For example, glucosyltransferase prepared from Streptococcus mutans etc. is added to an aqueous solution containing sucrose, and incubated at about the same temperature (about 37° C.) as in the oral cavity for less than 24 hours, preferably about 16 to 20 hours to enzymatically produce glucan from sucrose. Since glucan is insoluble in water, the turbidity of the resultant reaction solution (for example, turbidity at a wavelength of 550 nm) is measured. In this manner, the yield of glucan can be evaluated. If the yield of glucan low (in other words, turbidity is low), it is said that glucosyltransferase activity is more inhibited than that of the case where the yield of glucan is large (in other words, turbidity is high).
rGTF was prepared by the method described in the paper of M. matsumoto et al, FEMS Microbiology Letters 228 (2003) 73-80. More specifically, Escherichia coli XL-2 strain harboring a plasmid pSK6 having a gene encoding glucosyltransferase B (GTFB) of Streptococcus mutans was subjected to shaking culture performed in Luria Bertani liquid medium containing ampicillin (100 μg/mL) and tetracycline (7.5 μg/mL) at 37° C. for 16 hours. Bacterial cells were collected by centrifugally separating the medium, suspended in a 10 mM phosphate buffer (pH 6.5) previously cooled and crushed by an ultrasonic generator (UD201 type, manufactured by Tomy Seiko Co., Ltd., Tokyo) under ice cooling. After crushed, precipitates were centrifugally removed at 12,000×g for 30 minutes. The resultant supernatant was used as glucosyltransferase B (rGTFB) and put in use in later experiments.
The rGTFB having a specific activity of 503 mU/mg protein and the rGTFC having a specific activity of 6.3 to 22.3 mU/mg protein were used as a mixture. […] Protein was quantified by using the bicinchonine acid method (BCA method) (BCA protein assay kit, manufactured by PIERCE).
With 2 mL of 0.1M KPB (pH6.0) containing 1% sucrose-containing 0.1% dextran T10, rGTFB or rGTFC (amount corresponding to 15 mU (average value)) obtained in Example 2, and each of the above samples (final concentration: 0.1 mg/mL) were mixed. […] The turbidity (550 nm) of the resultant reaction solution was measured to obtain the yield of glucan insoluble in water. […]
With 2 mL of 0.1M KPB (pH6.0) containing 1% sucrose and 0.1% dextran T10, rGTFB or rGTFC (amount corresponding to 15 mU (average value)) obtained in Example 2 and each of the above samples (final concentration: 0.05 mg/mL) were mixed. […] The turbidity (550 nm) of the resultant reaction solution was measured to obtain the yield of glucan insoluble in water. […]

[2] = molecular target: T2, glucosyltransferase C (GTFC) (Streptococcus mutans serotype c, UniProt P13470); assay: Glucosyltransferase inhibitory activity, turbidity (550 nm) of water-insoluble glucan, rGTFC; format: biochemical; conditions: 37° C. overnight
T2 construct: made in house; host or cells: Escherichia coli XL-2 harboring a plasmid (printed as pSK6)
T2 sequence (P13470 35-1455): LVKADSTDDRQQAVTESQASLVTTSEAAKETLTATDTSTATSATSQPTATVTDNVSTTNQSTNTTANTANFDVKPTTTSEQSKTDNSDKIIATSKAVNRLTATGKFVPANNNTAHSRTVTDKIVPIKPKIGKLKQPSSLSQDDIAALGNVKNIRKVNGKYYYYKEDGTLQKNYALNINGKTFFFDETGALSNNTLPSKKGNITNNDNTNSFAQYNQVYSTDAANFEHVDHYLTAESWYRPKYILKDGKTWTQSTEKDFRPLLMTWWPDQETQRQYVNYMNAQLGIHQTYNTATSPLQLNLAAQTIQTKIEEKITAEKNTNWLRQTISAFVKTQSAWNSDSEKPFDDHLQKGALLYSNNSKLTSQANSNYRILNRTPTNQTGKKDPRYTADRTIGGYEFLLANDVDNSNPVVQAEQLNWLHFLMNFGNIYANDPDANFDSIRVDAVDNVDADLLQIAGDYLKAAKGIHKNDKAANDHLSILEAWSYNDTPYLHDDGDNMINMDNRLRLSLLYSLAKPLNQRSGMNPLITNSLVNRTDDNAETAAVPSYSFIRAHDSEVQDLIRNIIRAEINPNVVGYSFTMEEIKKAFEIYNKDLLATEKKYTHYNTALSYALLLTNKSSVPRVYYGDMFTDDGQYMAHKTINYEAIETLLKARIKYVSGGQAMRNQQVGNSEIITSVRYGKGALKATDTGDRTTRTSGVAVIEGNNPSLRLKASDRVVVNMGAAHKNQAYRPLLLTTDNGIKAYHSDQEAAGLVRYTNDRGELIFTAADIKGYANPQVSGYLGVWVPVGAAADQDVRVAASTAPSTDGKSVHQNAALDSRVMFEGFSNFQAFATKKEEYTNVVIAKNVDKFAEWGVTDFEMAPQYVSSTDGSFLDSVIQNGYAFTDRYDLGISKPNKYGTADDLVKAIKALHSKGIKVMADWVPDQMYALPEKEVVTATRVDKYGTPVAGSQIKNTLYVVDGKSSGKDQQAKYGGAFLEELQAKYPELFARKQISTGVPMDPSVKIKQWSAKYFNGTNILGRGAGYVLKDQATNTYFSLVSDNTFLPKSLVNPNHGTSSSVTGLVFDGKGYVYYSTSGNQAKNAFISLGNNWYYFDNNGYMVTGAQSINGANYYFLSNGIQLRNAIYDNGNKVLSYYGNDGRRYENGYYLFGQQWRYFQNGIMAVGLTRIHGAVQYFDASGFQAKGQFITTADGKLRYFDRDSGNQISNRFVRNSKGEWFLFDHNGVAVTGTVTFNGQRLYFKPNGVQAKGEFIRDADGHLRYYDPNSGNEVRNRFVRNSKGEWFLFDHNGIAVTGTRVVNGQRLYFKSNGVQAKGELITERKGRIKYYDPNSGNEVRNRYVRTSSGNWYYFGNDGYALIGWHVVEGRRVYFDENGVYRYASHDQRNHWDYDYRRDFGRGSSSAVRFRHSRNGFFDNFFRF
Experimental: as §1
Similarly, recombinant glucosyltransferase C (rGTFC) was prepared by using Escherichia coli XL-2 strain harboring a plasmid pSK6 having a gene encoding glucosyltransferase C (GTFC) of Streptococcus mutans and put in use in later experiments.
The rGTFB having a specific activity of 503 mU/mg protein and the rGTFC having a specific activity of 6.3 to 22.3 mU/mg protein were used as a mixture. The activity 1U represents activity of an enzyme in converting glucose ([…]) derived from sucrose into glucan per minute. Protein was quantified by using the bicinchonine acid method (BCA method) (BCA protein assay kit, manufactured by PIERCE).
(§2) With 2 mL of 0.1M KPB (pH6.0) containing 1% sucrose-containing 0.1% dextran T10, rGTFB or rGTFC (amount corresponding to 15 mU (average value)) obtained in Example 2, and each of the above samples (final concentration: 0.1 mg/mL) were mixed. The mixture was incubated at 37° C. overnight. The turbidity (550 nm) of the resultant reaction solution was measured to obtain the yield of glucan insoluble in water. The lower yield of the glucan insoluble in water (in other words, turbidity is low) means that the activity of glucosyltransferase is more inhibited. Note that the control (cont) shown in the figures represents turbidity in the absence of the aforementioned samples.
With 2 mL of 0.1M KPB (pH6.0) containing 1% sucrose and 0.1% dextran T10, rGTFB or rGTFC (amount corresponding to 15 mU (average value)) obtained in Example 2 and each of the above samples (final concentration: 0.05 mg/mL) were mixed. The mixture was incubated at 37° C. overnight. The turbidity (550 nm) of the resultant reaction solution was measured to obtain the yield of glucan insoluble in water. The lower yield of the glucan insoluble in water (in other words, turbidity is low) means that the activity of glucosyltransferase is more inhibited. […]

[3] = system: glucosyltransferase (GTF); assay: Overall GTF inhibitory activity, conclusion from the rGTFB and rGTFC tests; format: biochemical, Streptococcus mutans; conditions: summary of Examples 3 and 4, GTFB and GTFC
Experimental: as §2
as §2, with “1% sucrose and” for “1% sucrose-containing”, “Example 2” for “Example 2,”, “concentration: 0.05” for “concentration: 0.1”

[4] = sample final concentration 0.1 mg/mL, FIG. 7
[5] = sample final concentration 0.1 mg/mL, FIG. 8

| Compound | effect on the activity of GTFB (yield of water-insoluble glucan, turbidity) [1, 4] | effect on the activity of GTFC (yield of water-insoluble glucan, turbidity) [2, 5] | effect on the activity of GTFB (yield of water-insoluble glucan, turbidity) ([1]; sample final concentration 0.05 mg/mL, FIG. 9) | effect on the activity of GTFC (yield of water-insoluble glucan, turbidity) ([2]; sample final concentration 0.05 mg/mL, FIG. 10) | GTF inhibitory activity (overall) [3] |
| --- | --- | --- | --- | --- | --- |
| O=C(O[C@@H]1Cc2c(O)cc(O)c(Cc3c(O)cc(O)c4c3O[C@H](c3cc(O)c(O)c(O)c3)[C@H](OC(=O)c3cc(O)c(O)c(O)c3)C4)c2O[C@@H]1c1cc(O)c(O)c(O)c1)c1cc(O)c(O)c(O)c1 [OHBF-A, oolong homobisflavan-A] | inhibits | slightly enhances |  |  |  |
| O=C(O[C@@H]1Cc2c(O)cc(O)c(Cc3c(O)c(Cc4c(O)c(Cc5c(O)cc(O)c6c5O[C@H](c5cc(O)c(O)c(O)c5)[C@H](OC(=O)c5cc(O)c(O)c(O)c5)C6)c(O)c5c4O[C@H](c4cc(O)c(O)c(O)c4)[C@H](OC(=O)c4cc(O)c(O)c(O)c4)C5)c4c(c3O)C[C@@H](OC(=O)c3cc(O)c(O)c(O)c3)[C@@H](c3cc(O)c(O)c(O)c3)O4)c2O[C@@H]1c1cc(O)c(O)c(O)c1)c1cc(O)c(O)c(O)c1 [OHBF-Tet-2, oolong homobisflavan-tetramer-2] |  |  | significant inhibitory effect on GTFB was not confirmed | slightly inhibited |  |
| O=C(O[C@@H]1Cc2c(O)cc(O)cc2O[C@@H]1c1cc(O)c(O)c(O)c1-c1c([C@H]2Oc3cc(O)cc(O)c3C[C@H]2OC(=O)c2cc(O)c(O)c(O)c2)cc(O)c(O)c1O)c1cc(O)c(O)c(O)c1 [TSN-A, theasinensin A, reference compound] | substantially no effect | extremely enhances |  |  |  |
| O=C(O[C@@H]1Cc2c(cc(O)c(Cc3c(O)cc(O)c4c3O[C@H](c3cc(O)c(O)c(O)c3)[C@H](OC(=O)c3cc(O)c(O)c(O)c3)C4)c2O)O[C@@H]1c1cc(O)c(O)c(O)c1)c1cc(O)c(O)c(O)c1 [OHBF-B, oolong homobisflavan-B] | inhibit | inhibit |  |  | high |
